pIC50: −log10 of the molar value.
Test system: 677734-321-R-J1-PDC complex spheroid viability
Test: Anticancer human tumor 677734-321-R-J1-PDC patient-derived soft tissue sarcoma cell line growth inhibition [POLQ]
Settings: for viability, T/C: stronger effect = lower value
Description: Multicellular complex tumor spheroid response to Polymerase (POL) inhibitors (novobiocin, ART-558, RP6685) in combination with a variety of drugs and investigational agents in selected tumor cell lines
The POL inhibitors (novobiocin, ART-558, and RP6685) were evaluated both individually and in combination with standard of care and investigational anticancer small molecules within a complex spheroid model of solid tumors. . Complex spheroids include a stromal component modeled by human endothelial cells (HUVEC) and fibroblasts modeled by human mesenchymal stem cells (MSCs). The concentration ranges selected for each drug and investigational agent were based upon clinically achievable concentrations if the clinical Cmax of the agent was known.
Compounds. The drugs and investigational agents: novobiocin (NSC847541), ART-558 (NSC835418), RP-6685 (NSC848927), peposertib (NSC802822), ceralasertib (NSC780249), elimusertib (NSC800525), camonsertib (NSC841442), AZD-1390 (NSC803789), olaparib (NSC753686), talazoparib (NSC767125), rucaparib (NSC756644), sotorasib (NSC818433), MRTX-1133 (NSC836407), SN-38 (NSC673596), topotecan (NSC609699), epotoside (NSC141540), doxorubicin (NSC123127), gemcitabine (NSC613327), 5-fluorouracil (NSC19893), paclitaxel (NSC125973), vemurafenib (NSC761431), MSA-2 (NSC828583), SN-011 (NSC837082), adavosertib (NSC754352), prexasertib (NSC758257), carboplatin (NSC241240) and oxaliplatin (NSC266046), were obtained from the National Cancer Institute (NCI) Developmental Therapeutics Program Chemical Repository (21). The FDA-approved anticancer drug set is available from the Developmental Therapeutics Program at https://dtp.cancer.gov/organization/dscb/obtaining/. […] The stock solutions were prepared in dimethyl sulfoxide (DMSO, Sigma-Aldrich, St. Louis, MO, cat. D2650), except for the platinum compounds which were prepared in saline (Quality Biological, Gaithersburg, MD, cat. 114-055-101), at 800-fold the tested concentration and stored at -70 degrees C prior to their use. All drugs and investigational agents were tested over a range starting from a high concentration at or near the clinical Cmax and decreasing in half-log increments. If the clinical Cmax for an agent had not been determined, the highest concentration tested was 10 microM, except for SN-38, which was tested at a high concentration of 1 microM.
Cell Culture. All cells were maintained in an incubator at 37 degrees C and 5% CO2 with 95% humidity. The PDC lines were cultured according to standard operating procedures established by the NCI PDMR (https://pdmr.cancer.gov). Table 3 of the manuscript, lists the cell lines along with the number of the three cell types plated to form the mct-spheroids and media for tumor cell growth. After thawing, all PDC lines, except 997537-175-T-J1-PDC and 415267-285-R-J2-PDC, were cultured in Matrigel-coated flasks prepared with a working solution of 1X Ham's F-12 nutrient mix, without supplementation (Thermo Fisher Scientific, cat. 11765054), 100 U/mL penicillin-streptomycin (Thermo Fisher Scientific, cat. 15140122), and 2.5% Matrigel (Corning Inc., Corning, NY, cat. 354248) for the first three passages. The two PDC lines 997537-175-T-J1-PDC and 415267-285-R-J2-PDC were cultured on uncoated flasks. The 857933-349-R-J2-PDC line was cultured in 6C/Colon 1B media containing advanced DMEM/F-12 (Thermo Fisher Scientific, cat. 12634028), 10 mM HEPES (Thermo Fisher Scientific, cat. 15630080), 1X GlutaMAX supplement (Thermo Fisher Scientific, cat. 35050061), 0.1 mg/mL primocin (InvivoGen, San Diego, CA, cat. ant-pm-2), 10% defined fetal bovine serum, heat inactivated (HyClone Laboratories Inc., Logan, UT, cat. SH30070.03HI), 50% L-WRN conditioned media (ATCC, cat. CRL-3276), 1.25 mM N-Acetyl-L-cysteine (Sigma-Aldrich, cat. A9165), 10 mM nicotinamide (Sigma-Aldrich, cat. N0636), 1X B-27 supplement (Thermo Fisher Scientific, cat. 17504044), 1X N-2 supplement (Thermo Fisher Scientific, cat. […]

[1] = curve of first compound, second compound 0.0316 µM
[2] = curve of first compound, second compound 0.1 µM
[3] = curve of first compound, second compound 0.316 µM
[4] = curve of first compound, second compound 1 µM
[5] = curve of first compound, second compound 3.16 µM
[6] = curve of first compound, second compound 10 µM
[7] = second compound 0.0316 µM, first compound 0.000316 µM
[8] = second compound 0.0316 µM, first compound 0.001 µM
[9] = second compound 0.0316 µM, first compound 0.00316 µM
[10] = second compound 0.0316 µM, first compound 0.01 µM
[11] = second compound 0.0316 µM, first compound 0.0316 µM
[12] = second compound 0.0316 µM, first compound 0.1 µM
[13] = second compound 0.1 µM, first compound 0.000316 µM
[14] = second compound 0.1 µM, first compound 0.001 µM
[15] = second compound 0.1 µM, first compound 0.00316 µM
[16] = second compound 0.1 µM, first compound 0.01 µM
[17] = second compound 0.1 µM, first compound 0.0316 µM
[18] = second compound 0.1 µM, first compound 0.1 µM
[19] = second compound 0.316 µM, first compound 0.000316 µM
[20] = second compound 0.316 µM, first compound 0.001 µM
[21] = second compound 0.316 µM, first compound 0.00316 µM
[22] = second compound 0.316 µM, first compound 0.01 µM
[23] = second compound 0.316 µM, first compound 0.0316 µM
[24] = second compound 0.316 µM, first compound 0.1 µM
[25] = second compound 1 µM, first compound 0.000316 µM
[26] = second compound 1 µM, first compound 0.001 µM
[27] = second compound 1 µM, first compound 0.00316 µM
[28] = second compound 1 µM, first compound 0.01 µM
[29] = second compound 1 µM, first compound 0.0316 µM
[30] = second compound 1 µM, first compound 0.1 µM
[31] = second compound 3.16 µM, first compound 0.000316 µM
[32] = second compound 3.16 µM, first compound 0.001 µM
[33] = second compound 3.16 µM, first compound 0.00316 µM
[34] = second compound 3.16 µM, first compound 0.01 µM
[35] = second compound 3.16 µM, first compound 0.0316 µM
[36] = second compound 3.16 µM, first compound 0.1 µM
[37] = second compound 10 µM, first compound 0.000316 µM
[38] = second compound 10 µM, first compound 0.001 µM
[39] = second compound 10 µM, first compound 0.00316 µM
[40] = second compound 10 µM, first compound 0.01 µM
[41] = second compound 10 µM, first compound 0.0316 µM
[42] = second compound 10 µM, first compound 0.1 µM
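Note: spheroids exposed to compounds for one week.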
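Throughout, for viability, T/C: 100% = vehicle DMSO treated spheroids.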

Molecule `CC[C@@]1(O)C(=O)OCc2c1cc1n(c2=O)Cc2cc3c(CN(C)C)c(O)ccc3nc2-1` + Nc1ccc(C#CCN(C(=O)Cc2ncc(C(F)(F)F)cc2C(F)(F)F)c2ccc(F)cc2)nn1 has a pIC50 [1] of 7.70, a pIC50 [2] of 7.67 and a pIC50 [3] of 7.66. It also gave a pIC50 [4] of 7.65, a pIC50 [5] of 7.65 and a pIC50 [6] of 7.66. The viability, T/C [7] was 108%, the viability, T/C [8] was 115% and the viability, T/C [9] was 117%. The viability, T/C [10] was 86.2%, the viability, T/C [11] was 25.9% and the viability, T/C [12] was 15.3%. The viability, T/C [13] was 99.3%, the viability, T/C [14] was 97.7% and the viability, T/C [15] was 99.2%. The viability, T/C [16] was 87.3%, the viability, T/C [17] was 30.3% and the viability, T/C [18] was 13%. For the same molecule, the viability, T/C [19] was 116%, the viability, T/C [20] was 105% and the viability, T/C [21] was 90.4%. For the same molecule, the viability, T/C [22] was 98.2%, the viability, T/C [23] was 28.1% and the viability, T/C [24] was 14.9%. For the same molecule, the viability, T/C [25] was 110%, the viability, T/C [26] was 99.9% and the viability, T/C [27] was 103%. It also gave a viability, T/C [28] of 89.9%, a viability, T/C [29] of 33.6% and a viability, T/C [30] of 12.8%. The viability, T/C [31] was 102%, the viability, T/C [32] was 102% and the viability, T/C [33] was 104%. The viability, T/C [34] was 102%, the viability, T/C [35] was 27.7% and the viability, T/C [36] was 17.6%. It also gave a viability, T/C [37] of 135%, a viability, T/C [38] of 106% and a viability, T/C [39] of 92.5%. The viability, T/C [40] was 83.7%, the viability, T/C [41] was 29.4% and the viability, T/C [42] was 13.8%.
Molecule `CC[C@@]1(O)C(=O)OCc2c1cc1n(c2=O)Cc2cc3c(CN(C)C)c(O)ccc3nc2-1` + COC1C(OC(N)=O)C(O)C(Oc2ccc3c(O)c(NC(=O)c4ccc(O)c(CC=C(C)C)c4)c(=O)oc3c2C)OC1(C)C has a pIC50 [1] of 7.59, a pIC50 [2] of 7.61 and a pIC50 [3] of 7.58. It also gave a pIC50 [4] of 7.63, a pIC50 [5] of 7.60 and a pIC50 [6] of 7.54. For the same molecule, the viability, T/C [7] was 104%, the viability, T/C [8] was 112% and the viability, T/C [9] was 105%. For the same molecule, the viability, T/C [10] was 105%, the viability, T/C [11] was 37.1% and the viability, T/C [12] was 16.8%. For the same molecule, the viability, T/C [13] was 109%, the viability, T/C [14] was 108% and the viability, T/C [15] was 109%. It also gave a viability, T/C [16] of 100%, a viability, T/C [17] of 33.8% and a viability, T/C [18] of 18.8%. It also gave a viability, T/C [19] of 105%, a viability, T/C [20] of 117% and a viability, T/C [21] of 94.2%. It also gave a viability, T/C [22] of 103%, a viability, T/C [23] of 39.3% and a viability, T/C [24] of 16.3%. For the same molecule, the viability, T/C [25] was 113%, the viability, T/C [26] was 109% and the viability, T/C [27] was 106%. The viability, T/C [28] was 106%, the viability, T/C [29] was 29.3% and the viability, T/C [30] was 15.4%. For the same molecule, the viability, T/C [31] was 120%, the viability, T/C [32] was 108% and the viability, T/C [33] was 110%. For the same molecule, the viability, T/C [34] was 98.2%, the viability, T/C [35] was 34.5% and the viability, T/C [36] was 16%. The viability, T/C [37] was 109%, the viability, T/C [38] was 106% and the viability, T/C [39] was 106%. The viability, T/C [40] was 98.9%, the viability, T/C [41] was 45.6% and the viability, T/C [42] was 18.7%.
`Cc1cccc(N(C)C(=O)C2C(O)CCN2c2nc(C)cc(C(F)(F)F)c2C#N)c1` (stereo unspecified) was tested, and the viability, T/C (compound 0.0316 µM) was 101% [middle of 13 runs], the viability, T/C (compound 0.1 µM) was 103% [middle of 13 runs] and the viability, T/C (compound 0.316 µM) was 107% [middle of 13 runs]. The viability, T/C (compound 1 µM) was 99.2% [middle of 13 runs], the viability, T/C (compound 3.16 µM) was 102% [middle of 13 runs] and the pIC50 (compound alone, run of 11/27/2023) was under 5.00. The pIC50 (compound alone, run of 12/05/2023) was under 5.00.
